In this test the target is HPK1 (Homo sapiens (Human), UniProt Q92918). Put plainly: HPK1 biochemical enzyme assay (microfluidic mobility shift assay). The settings on record: 1.5 nM HPK1, ATP 1 mM final, 30 min preincubation, 60 min at RT, Caliper EZ Reader; read-out: HPK1 1000UMATP caliper IC50. Summed up:
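Mobility shift readout of HPK1 activity after a 60 min RT reaction with 1 mM ATP, 1 μM substrate and 5 mM MgCl2. Enzyme/substrate mix was first exposed to compounds for 30 min, using ten-point curves topping at 3 μM final.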
HPK1, sequence (Q92918 whole entry): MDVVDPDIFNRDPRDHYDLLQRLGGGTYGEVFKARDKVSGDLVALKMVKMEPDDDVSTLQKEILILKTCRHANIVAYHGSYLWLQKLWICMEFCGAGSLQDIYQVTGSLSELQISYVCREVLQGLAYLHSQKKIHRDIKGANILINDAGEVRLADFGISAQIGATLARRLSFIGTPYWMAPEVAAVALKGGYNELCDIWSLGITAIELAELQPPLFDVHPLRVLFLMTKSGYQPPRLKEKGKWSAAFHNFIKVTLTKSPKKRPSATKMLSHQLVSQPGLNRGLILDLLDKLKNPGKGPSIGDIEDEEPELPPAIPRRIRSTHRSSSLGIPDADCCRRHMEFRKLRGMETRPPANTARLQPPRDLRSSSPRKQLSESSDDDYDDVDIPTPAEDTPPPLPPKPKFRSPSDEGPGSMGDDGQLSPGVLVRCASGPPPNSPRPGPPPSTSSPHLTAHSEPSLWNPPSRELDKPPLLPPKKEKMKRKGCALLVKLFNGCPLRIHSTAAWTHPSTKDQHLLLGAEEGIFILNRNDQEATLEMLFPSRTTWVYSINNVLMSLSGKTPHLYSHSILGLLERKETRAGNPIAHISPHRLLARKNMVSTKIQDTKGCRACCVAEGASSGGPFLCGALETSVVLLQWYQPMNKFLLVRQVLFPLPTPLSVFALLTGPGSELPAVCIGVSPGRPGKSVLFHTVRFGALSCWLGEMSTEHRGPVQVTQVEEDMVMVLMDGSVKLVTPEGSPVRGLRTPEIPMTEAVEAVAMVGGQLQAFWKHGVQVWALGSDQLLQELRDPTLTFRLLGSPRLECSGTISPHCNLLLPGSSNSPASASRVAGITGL
For `Cc1ccn2c(-c3ncc(Nc4ccc(N5CCO[C@H](C(C)(C)O)C5)cn4)c4c3CNC4=O)cnc2c1F` [I-473, 4-(8-fluoro-7-methyl-imidazo[1,2-a]pyridin-3-yl)-7-[[5-[(2S)-2-(1-hydroxy-1-methyl-ethyl)morpholin-4-yl]-2-pyridyl]amino]-2,3-dihydropyrrolo [3,4-c]pyridin-1-one], the IC50 is < 100 nM.

`CN(C)C1CN(c2nc(Nc3ccc(-c4cnc5cc(F)ccn45)c4c3C(=O)NC4)ccc2C2CCOC2)C1` (stereo in doubt) [I-786, (S)-7-((6-(3-(dimctliylami-no)azetidin-1-yl)-5-(tetrahydrofur-an-3-yl)pyridin-2-yl)amino)-4-(7-fluoroimidazo [1,2-a]pyridin-3-yl)isoindolin-1-one]: the IC50 was < 100 nM.

Consider `Cc1cnn2c(-c3ccc(Nc4ccc([C@H]5CCOC5)c(CN(C)C)n4)c4c3CNC4=O)cnc2c1` [I-537, (R)-7-((6-((dimethylamino)-methyl)-5-(tetrahydrofuran-3-yl)pyridin-2-yl)amino)-4-(7-methylimidazo [1,2-b]pyridazin-3-yl)isoindolin-1-one], for which the IC50 was < 100 nM.

As to `CN(C)C1(C2CN(c3ccc(Nc4ccc(-c5cnc6cc(F)ccn56)c5c4C(=O)NC5)nc3)CCO2)CC1` (stereo in doubt) [I-686, (R)-7-((5-(2-(1-(dimethylami-no)cyclopropyl)morphoIino)py-ridin-2-yl)amino)-4-(7-fluoroimidazo [1,2-a]pyridin-3-yl)isoindolin-1-one], the IC50 is < 100 nM.

As to `CN1CCc2cc(-c3ccc(Nc4ccc(N5CCC(O)CC5)cn4)c4c3CNC4=O)nn2CC1=O` [I-290, 2-(7-((5-(4-hydroxy-piperidin-1-yl)pyridin-2-yl)amino)-1-oxoisoindolin-4-yl)-6-methyl-5,6-dihydro-4H-pyrazolo[1,5-d][1,4]diaze-pin-7(8H)-one], the half-maximal inhibitory concentration (IC50) was > 1000 nM.

As for `CN(C)Cc1nc(Nc2cnc(-c3ccnc4c3ccn4C)c3c2C(=O)NC3)ccc1N1CCC(O)CC1` [I-776, 7-((6-((dimethylamino)-methyl)-5-(4-hydroxypiperidin-1-yl)pyridin-2-yl)amino)-4-(1-methyl-1H-pyrrolo[2,3-b]pyridin-4-yl)-2,3-dihydro-1H-pyrrolo[3,4-c]pyridin-1-one], the IC50 is < 100 nM.

On to `C[C@H](c1ccc(Nc2ccc(-c3cnc4cc(F)ccn34)c3c2C(=O)NC3)nc1)N1CCC(O)CC1` [I-527, (R)-4-(7-fluoroimidazo [1,2-a]pyridin-3-yl)-7-((5-(1-(4-hydroxypiperidin-1-yl)ethyl)pyridin-2-yl)amino)isoin-dolin-1-one], for which the IC50 is < 100 nM.

Take `NCc1nc(Nc2ccc(-c3cnc4cc(F)ccn34)c3c2C(=O)NC3)ccc1[C@@H]1CCOC1` [I-702, (S)-7-((6-(aminomethyl)-5-(tetrahydrofuran-3-yl)pyridin-2-yl)amino)-4-(7-fluoroimidazo [1,2-a]pyridin-3-yl)isoindolin-1-one]: the IC50 is < 100 nM.

As to `COCC1CN(c2ccc(Nc3ccc(-c4cnc5cnccn45)c4c3C(=O)NC4)nc2)CCO1` (stereo in doubt) [I-334, (R)-4-(imidazo[1,2-a]pyrazin-3-yl)-7-((5-(2-(methoxymeth-yl)morpholino)-pyridin-2-yl)amino)isoin-dolin-1-one], the IC50 is < 100 nM.

As for `O=C1NCc2c(-c3cnc4cc(F)ccn34)ccc(Nc3cnn(C4CCOCC4)c3)c21` [I-379, 4-(7-fluoroimidazo [1,2-a]pyridin-3-yl)-7-((1-(tetrahydro-2H-pyran-4-yl)-1H-pyrazol-4-yl)amino)isoin-dolin-1-one], the IC50 was in the range of 100 to 1000 nM.

For `Cn1cnc2c(-c3ccc(Nc4ccc(N5CCC(O)CC5)cn4)c4c3CNC4=O)cccc21` [I-173, 7-[[5-(4-hydroxy-1-piperidyl)-2-pyridyl]amino]-4-(1-methylbenz-imidazol-4-yl)isoindolin-1-one], the IC50 was < 100 nM.

As for `CN1CCN(c2ccc(Nc3ccc(-c4cnc5n4CCNC5)c4c3C(=O)NC4)nc2)CC1` [I-92], the IC50 was < 100 nM.

For the origin of these results see patent publication US11021481B2, “Substituted isoindolin-1-ones and 2,3-dihydro-1h-pyrrolo[3,4-c]pyridin-1-ones as HPK1 antagonists” (Nimbus Saturn, Inc., priority 2019, dated 2021).
